According to patent US20220306617A1, “SUBSTITUTED 1,3-PHENYL HETEROARYL DERIVATIVES AND THEIR USE IN THE TREATMENT OF DISEASE” (NOVARTIS AG, priority 2019, published 2022):

Target: T1, abc isoform of human TMEM16A channel expressed in CHO cells (Homo sapiens, UniProt Q5XXA6, DEL476-501)
T1 construct: expressed in transfected cells; host or cells: CHO cells, doxycycline-inducible expression under Blasticidin/Zeocin selection
T1 sequence (Q5XXA6 with tags, fused parts or gaps isoform Q5XXA6-5 DEL539-564): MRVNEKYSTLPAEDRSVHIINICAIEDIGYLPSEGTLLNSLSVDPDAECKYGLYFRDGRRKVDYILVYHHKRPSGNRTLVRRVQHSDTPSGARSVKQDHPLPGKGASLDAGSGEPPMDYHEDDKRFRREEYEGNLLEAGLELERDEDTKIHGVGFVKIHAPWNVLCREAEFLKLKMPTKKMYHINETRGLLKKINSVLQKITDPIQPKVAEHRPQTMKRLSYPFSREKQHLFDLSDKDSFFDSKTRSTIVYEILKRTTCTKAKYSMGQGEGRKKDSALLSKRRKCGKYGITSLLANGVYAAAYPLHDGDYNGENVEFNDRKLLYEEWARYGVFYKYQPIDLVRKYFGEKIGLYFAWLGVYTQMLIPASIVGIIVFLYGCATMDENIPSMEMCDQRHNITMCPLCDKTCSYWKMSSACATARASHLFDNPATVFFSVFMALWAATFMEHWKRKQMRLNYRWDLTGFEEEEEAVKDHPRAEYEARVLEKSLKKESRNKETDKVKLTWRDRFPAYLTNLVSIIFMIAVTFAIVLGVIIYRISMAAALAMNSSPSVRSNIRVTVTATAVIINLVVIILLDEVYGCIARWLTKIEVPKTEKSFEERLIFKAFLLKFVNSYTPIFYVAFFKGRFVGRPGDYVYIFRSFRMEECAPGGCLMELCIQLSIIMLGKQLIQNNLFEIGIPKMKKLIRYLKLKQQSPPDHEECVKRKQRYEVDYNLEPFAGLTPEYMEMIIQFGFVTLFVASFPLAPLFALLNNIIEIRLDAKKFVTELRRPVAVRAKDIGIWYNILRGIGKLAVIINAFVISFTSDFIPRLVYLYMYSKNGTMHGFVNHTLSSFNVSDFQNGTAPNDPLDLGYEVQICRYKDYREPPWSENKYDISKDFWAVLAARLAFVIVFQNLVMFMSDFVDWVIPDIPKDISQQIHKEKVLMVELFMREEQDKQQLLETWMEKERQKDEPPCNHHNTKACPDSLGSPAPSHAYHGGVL
Test: Automated patch clamping (QPatch) assay to measure TMEM16A activity in whole-cell
Type: cell-based
Conditions: for EC50: CHO cells expressing human TMEM16A (abc), whole-cell automated patch clamp, Hill fit, read-out: TMEM16A QPATCH assay EC50 V3 EC50; for Emax: CHO, read-out: TMEM16A QPATCH assay EC50 V3 Assay Window (% TMEM16A max activation)
Method in brief: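 CHO cells with doxycycline-induced (1 μg/mL, 18-24 h) human TMEM16A abc isoform; QPatch whole-cell recording, hold −70 mV, step +70 mV 1500 ms, then −90 to +70 mV ramp. Compounds in 0.3% DMSO; EC50 by Hill fit; % max activation relative to vehicle baseline and reference potentiator maximum.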

[1] = maximum current at highest dose relative to reference potentiator at maximal concentration (upper limit) and vehicle (lower limit)

Row | SMILES | EC50 [nM] | Emax [1] [%] | TMEM16A QPATCH assay EC50 V3 Assay Window (% TMEM16A max activation) [1] [%]
1 | CCOC(=O)[C@@H](NC(=O)c1nnc(-c2cccc(-c3ncc(C(=O)N[C@@H](C)C4CC4)o3)c2)[nH]1)C(C)C [Example 13.6, (S)-Ethyl 2-(5-(3-(5-(((S)-1-Cyclopropylethyl)Carbamoyl)Oxazol-2-Yl)Phenyl)-4H-1,2,4-Triazole-3-Carboxamido)-3-Methylbutanoate] | 370 | 97 | 
2 | C[C@H](NC(=O)c1cc(-c2cccc(-c3ncc(C(=O)NC(C4CC4)C4CC4)o3)c2)nn1CC(O)C(F)(F)F)C1CC1 (single isomer, unassigned) [Example 9.2 (ii)] | 40 |  | 83
3 | CCOC(=O)[C@@H](NC(=O)c1cnc(-c2cccc(-c3nc(C(=O)NC(C4CC4)C(F)(F)F)n[nH]3)c2)o1)C(C)C (stereo partly shown) [Example 12.14] | 80 | 97 | 
4 | CCOC(=O)[C@@H](NC(=O)c1cnc(-c2cccc(-c3cc(C(=O)N[C@@H](C)C4CC4)n(CCO)n3)c2)o1)C(C)C [Example 4.2, (S)-Ethyl 2-(2-(3-(5-(((S)-1-Cyclopropylethyl)Carbamoyl)-1-(2-Hydroxyethyl)-1H-Pyrazol-3-Yl)Phenyl)Oxazole-5-Carboxamido)-3-Methylbutanoate] | 680 | 125 | 
5 | C[C@@H](NC(=O)c1nnc(-c2cccc(-c3ncc(C(=O)NC(C4CC4)C4CC4)o3)c2)[nH]1)C1CC1 [Example 13.1, (R)-2-(3-(5-((1-Cyclopropylethyl)Carbamoyl)-4H-1,2,4-Triazol-3-Yl)Phenyl)-N-(Dicyclopropylmethyl)Oxazole-5-Carboxamide] | 110 | 88 | 
6 | O=C(NC1CCCC1)c1cnc(-c2cccc(-c3cc(C(=O)NC4CCCC4)n(CCCO)n3)c2)o1 [Example 5.2, N-Cyclopentyl-2-(3-(5-(Cyclopentylcarbamoyl)-1-(3-Hydroxypropyl)-1H-Pyrazol-3-Yl)Phenyl)Oxazole-5-Carboxamide] | 840 | 201 | 
7 | C[C@@H](NC(=O)c1cnc(-c2cccc(-c3cc(C(=O)N[C@H](C)C4CC4)n(CCO)n3)c2)o1)C1CC1 [Example 10.1, N-((R)-1-Cyclopropylethyl)-2-(3-(5-(((R)-1-Cyclopropylethyl)Carbamoyl)-1-(2-Hydroxyethyl)-1H-Pyrazol-3-yl)Phenyl)Oxazole-5-Carboxamide] | 320 | 101 | 
8 | C[C@H](NC(=O)c1nnc(-c2cccc(-c3ncc(C(=O)N[C@H](C)C4CC4)o3)c2)[nH]1)C1CC1 [Example 12.1, N-((R)-1-Cyclopropylethyl)-2-(3-(5-(((S)-1-Cyclopropylethyl)Carbamoyl)-4H-1,2,4-Triazol-3-Yl)Phenyl)Oxazole-5-Carboxamide] | 270 | 80 | 
9 | COC(=O)[C@@H](NC(=O)c1cnc(-c2cccc(-c3nnc(C(=O)NC(C4CC4)C4CC4)[nH]3)c2)o1)C(C)C [Example 12.9, (S)-Methyl 2-(2-(3-(5-((Dicyclopropylmethyl)Carbamoyl)-4H-1,2,4-Triazol-3-Yl)Phenyl)Oxazole-5-Carboxamido)-3-Methylbutanoate] | 20 | 134 | 

Continued, values first:

Row | EC50 [nM] | Emax [1] [%] | TMEM16A QPATCH assay EC50 V3 Assay Window (% TMEM16A max activation) [1] [%] | SMILES
10 | 270 | 69 |  | CCC(CC)NC(=O)c1cnc(-c2cccc(-c3cc(C(=O)NCc4ccc(C5(C(F)(F)F)N=N5)cc4)n[nH]3)c2)o1 [Example 3.19, N-(Pentan-3-Yl)-2-(3-(3-((4-(3-(Trifluoromethyl)-3H-Diazirin-3-Yl)Benzyl)Carbamoyl)-1 H-Pyrazol-5-Yl)Phenyl)Oxazole-5-Carboxamide]
11 | 30 | 90 |  | CCCC(CCC)NC(=O)c1cc(-c2cccc(-c3ncc(C(=O)NC(CC)CC)o3)c2)[nH]n1 [Example 3.2, 2-(3-(3-(Heptan-4-Ylcarbamoyl)-1 H-Pyrazol-5-Yl)Phenyl)-N-(Pentan-3-yl)Oxazole-5-Carboxamide]
12 | 1000 | 61 |  | CCC(CC)NC(=O)c1cnc(-c2cccc(-c3nc(C(=O)NC(CC)CC)n(CCN(C)C)n3)c2)o1 [Example 15.4, 2-(3-(1-(2-(Dimethylamino)Ethyl)-5-(Pentan-3-Ylcarbamoyl)-1H-1,2,4-Triazol-3-Yl)Phenyl)-N-(Pentan-3-Yl)Oxazole-5-Carboxamide]
13 | 830 | 100 |  | CCC(CC)NC(=O)c1cc(-c2cccc(-c3ncc(C(=O)N[C@@H](CC(C)C)C(=O)NCC(=O)OC(C)(C)C)o3)c2)[nH]n1 [Example 1.16, (S)-Tert-Butyl 2-(4-Methyl-2-(2-(3-(3-(Pentan-3-Ylcarbamoyl)-1 H-Pyrazol-5-yl)Phenyl)Oxazole-5-Carboxamido)Pentanamido)Acetate]
14 | 750 | 90 |  | CCC(CC)NC(=O)c1cnc(-c2cccc(-c3cc(C(=O)N4CCC(C(=O)OC)C4)n[nH]3)c2)o1 (stereo not shown) [Example 3.30, Methyl 1-(5-(3-(5-(Pentan-3-Ylcarbamoyl)Oxazol-2-Yl)Phenyl)-1H-Pyrazole-3-Carbonyl)Pyrrolidine-3-Carboxylate]
15 | 310 | 90 |  | CCOC(=O)[C@@H](NC(=O)c1cnc(-c2cccc(-c3cc(C(=O)NC(CC)CC)n(CCN4CCOCC4)n3)c2)o1)C(C)C [Example 6.0, (S)-ethyl 3-methyl-2-(2-(3-(1-(2-morpholinoethyl)-5-(pentan-3-ylcarbamoyl)-1H-pyrazol-3-yl)phenyl)oxazole-5-carboxamido)butanoate]
16 | 180 | 87 |  | CCC(CC)NC(=O)c1cnc(-c2cccc(-c3cc(C(=O)N4CCCC4C(C)C)n[nH]3)c2)o1 (stereo not shown) [Example 3.31, 2-(3-(3-(2-Isopropylpyrrolidine-1-Carbonyl)-1H-Pyrazol-5-Yl)Phenyl)-N-(Pentan-3-Yl)Oxazole-5-Carboxamide]
17 | 910 | 103 |  | COC(=O)[C@H](CC1CCCCC1)NC(=O)c1cnc(-c2cccc(-c3cc(C(=O)NC(C4CC4)C4CC4)n[nH]3)c2)o1 [Example 1.4, (S)-Methyl 3-Cyclohexyl-2-(2-(3-(3-((Dicyclopropylmethyl)Carbamoyl)-1H-Pyrazol-5-Yl)Phenyl)Oxazole-5-Carboxamido)Propanoate]
18 | 140 | 67 |  | CCC(CC)NC(=O)c1cnc(-c2cccc(-c3cc(C(=O)NCc4ccccc4)n[nH]3)c2)o1 [Example 3.16, 2-(3-(3-(Benzylcarbamoyl)-1H-Pyrazol-5-Yl)Phenyl)-N-(Pentan-3-Yl)Oxazole-5-Carboxamide]
19 | 770 | 65 |  | CCC(CC)NC(=O)c1cc(-c2cccc(-c3ncc(C(=O)NCc4ccc5c(c4)OCO5)o3)c2)[nH]n1 [Example 1.31, N-(Benzo[d][1,3]Dioxol-5-Ylmethyl)-2-(3-(3-(Pentan-3-Ylcarbamoyl)-1 H-Pyrazol-5-yl)Phenyl)Oxazole-5-Carboxamide]
20 | 260 | 83 |  | COC(=O)[C@@H](CSC)NC(=O)c1cnc(-c2cccc(-c3cc(C(=O)N[C@@H](C)C4CC4)n[nH]3)c2)o1 [Example 1.25, (S)-Methyl 2-(2-(3-(3-(((S)-1-Cyclopropylethyl)Carbamoyl)-1H-Pyrazol-5-yl)Phenyl)Oxazole-5-Carboxamido)-3-(Methylthio)Propanoate]
21 | 130 | 177 |  | CCC(CC)NC(=O)c1cnc(-c2cccc(-c3nc(C(=O)NC(CC)CC)n(CCO)n3)c2)o1 [Example 16.0, 2-(3-(1-(2-Hydroxyethyl)-5-(Pentan-3-Ylcarbamoyl)-1H-1,2,4-Triazol-3-Yl)Phenyl)-N-(Pentan-3-Yl)Oxazole-5-Carboxamide]
22 | 40 | 90 |  | CCC(CC)NC(=O)c1cnc(-c2cccc(-c3cc(C(=O)N[C@@H](C)C4CC4)n[nH]3)c2)o1 [Example 3.25, (S)-2-(3-(3-((1-Cyclopropylethyl)Carbamoyl)-1H-Pyrazol-5-Yl)Phenyl)-N-(Pentan-3-Yl)Oxazole-5-Carboxamide]
23 | 350 | 70 |  | CCC(CC)NC(=O)c1cnc(-c2cccc(-c3cc(C(=O)N[C@@H](Cc4ccccc4)C(=O)OC)n[nH]3)c2)o1 [Example 3.50, (S)-Methyl 2-(5-(3-(5-(Pentan-3-Ylcarbamoyl)Oxazol-2-Yl)Phenyl)-1H-Pyrazole-3-Carboxamido)-3-Phenylpropanoate]
